For series [1], the target named is Peptidyl-prolyl cis-trans isomerase NIMA-interacting 1 (Homo sapiens, UniProt Q13526). The series is described as follows: Inhibition of Pin1 (unknown origin).
Series [2] has as its system HT-29. The experiment in a line: Antiproliferative activity against human HT-29 cells. The series is classed as functional, cell-based.
Series [3] concerns HT-29. The experiment in a line: Cell cycle arrest in human HT-29 cells assessed as cells accumulation at G0/G1 phase at 50 uM by FACS analysis (reference value: 56.9%). It is filed as functional.
In series [4] the test system is HT-29. The series is described as follows: Cell cycle arrest in human HT-29 cells assessed as cells accumulation at S phase at 50 uM by FACS analysis (reference value: 37%). It is filed as functional. For orientation: A flow cytometer gives signals particle by particle.
Series [5] relates to HT-29. The series is described as follows: Cell cycle arrest in human HT-29 cells assessed as cells accumulation at G2/M phase at 50 uM by FACS analysis (reference value: 6.2%). It is filed as functional.
The test system of series [6] is HT-29. The series is described as follows: Cell cycle arrest in human HT-29 cells assessed as cells accumulation at sub G1 phase at 50 uM by FACS analysis (Rvb =<1%). It is filed as functional.
The test system of series [7] is HT-29. The series is described as follows: Induction of histological changes in human HT-29 cells assessed as fragmented phenotype at 50 uM by DAPI staining. It is filed as functional, cell-based.
Series [8] is described as follows: Aqueous solubility of the compound. The following applies: buffer. The series is classed as physicochemical.
A short description of series [9]: Lipophilicity, log P of the compound. The series is classed as physicochemical. The following applies: octanol/water.
The nature of series [10]: Dissociation constant, pKa of the compound. The series is classed as physicochemical.

Values after ≈ are worked out from the molar mass of the structure shown. Active and inactive are the calls of the source. The rule behind the calls is not given here.

Chain of Peptidyl-prolyl cis-trans isomerase NIMA-interacting 1 (Q13526 whole entry): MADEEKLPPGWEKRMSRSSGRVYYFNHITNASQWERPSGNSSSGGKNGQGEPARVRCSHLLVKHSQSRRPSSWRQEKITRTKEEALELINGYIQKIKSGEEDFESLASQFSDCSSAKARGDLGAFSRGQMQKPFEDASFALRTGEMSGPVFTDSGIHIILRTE

What is called Ki is the equilibrium dissociation constant of an inhibitor or competing ligand from its target. Low values mean tighter binding, high ones weaker binding. Usually IC50 stands for the concentration at which inhibition is half-maximal. Low values mean greater potency in that assay, high ones weaker potency in that assay. Consider `O=C(O)C1(Cc2cc3ccc(F)cc3[nH]2)CSC(CC2c3ccccc3-c3ccccc32)=N1` (racemic), for which affinity in series [1] was put at a Ki of 320 nM. In the series on HT-29 [2], this molecule came in with a concentration for half-maximal inhibition (IC50) of 4.2 µM.

On to `O=C(O)C1(Cc2cc3ccc(F)cc3[nH]2)CSC(CCc2c(Cl)cccc2Cl)=N1` (racemic), for which, in [1], the Ki is 196 nM. The IC50 with HT-29 [2] worked out at 4.6 µM.

Molecule `O=C(N[C@H](Cc1nc2cc(Cl)ccc2[nH]1)C(=O)O)c1cc2ccccc2s1` had a Ki in [1] of 189 nM.

Take `O=C(NC(Cc1cc2ccccc2o1)C(=O)O)c1ccc2ccccc2c1` (centres undefined): the affinity in series [1] corresponds to a Ki of 10000 nM.

Consider `O=C(NC(Cc1nc2ccccc2[nH]1)C(=O)O)c1ccc2ccccc2c1` (racemic), for which, in series [1], the inhibition constant (Ki) turned out to be 1000 nM.

For the molecule `O=C(O)C1(Cc2cc3ccc(F)cc3[nH]2)CSC(c2ccc3ccccc3c2)=N1` (racemic), the inhibition constant Ki in [1] came out at 1360 nM. Also, the IC50 in the series with HT-29 [2] stood at 27 µM. Besides, the Activity in the series with HT-29 [3] is listed as 10.2%; with HT-29 [4], 18.7%; in the series on HT-29 [5], 71.1%; with HT-29 [6], 5%. Besides, the outcome in the series with HT-29 [7] was Active.

In the case of `Cc1ccc2[nH]c(C[C@@H](NC(=O)c3ccc4ccccc4c3)C(=O)O)nc2c1`, the affinity in [1], expressed as Ki, was 780 nM.

`O=C(NC(Cc1cc2ccccc2[nH]1)C(=O)O)c1ccc2ccccc2c1` (centres undefined): the Ki in series [1] is 1900 nM.

As usually defined, the solubility is the concentration that dissolves in the medium under given conditions. Read a low solubility as a poorly soluble substance. By logP is commonly meant the decadic logarithm of the partition coefficient of the neutral form, usually between octanol and water. Low values mean a more hydrophilic compound, high ones a more lipophilic compound. One may read the pKa as the negative logarithm of the acid dissociation constant. High values mean a weaker acid or stronger base, low ones a stronger acid or weaker base. With `O=C(CCc1c(Cl)cccc1Cl)N[C@H](Cc1cc2ccc(F)cc2[nH]1)C(=O)O`, affinity in [1] was put at a Ki of 75 nM. Moreover, in series [8], the solubility is more than 100 µg/mL. Moreover, in series [9], the logP amounted to 3.5. Further, in series [10], the pKa is 3.9.

`O=C(N[C@H](Cc1cc2ccc(F)cc2[nH]1)C(=O)O)c1ccc2ccccc2c1` registered a Ki in series [1] of 138 nM. This molecule gave a solubility in series [8] of more than 120 µg/mL. Further, the log partition coefficient (logP) in series [9] was determined as 2.59. Also, the pKa in [10] was determined as 3.92.

With `O=C(N[C@H](Cc1nc2cc(Cl)ccc2[nH]1)C(=O)O)c1ccc2ccccc2c1`, in [1], affinity was put at a Ki of 173 nM.

Molecule `O=C(O)C1(Cc2cc3ccc(F)cc3[nH]2)CSC(/C=C/c2c(Cl)cccc2Cl)=N1` (racemic) came in with an inhibitory constant (Ki) in series [1] of 580 nM. For the same molecule, half-maximal inhibition in the series with HT-29 [2] (IC50) required 1.9 µM.

As to `O=C(N[C@H](Cc1nc2ccccc2s1)C(=O)O)c1ccc2ccccc2c1`, in series [1], the affinity corresponds to a Ki of 46000 nM.

In turn, `O=C(Cc1cccc2ccccc12)N[C@H](Cc1cc2ccc(F)cc2[nH]1)C(=O)O` gave a Ki in series [1] of 400 nM. The same molecule came in with a solubility in series [8] of 106 µg/mL (≈ 272 µM). Besides, the lipophilicity (logP) in series [9] turned out to be 2.49. For the same molecule, the pKa in series [10] was 3.91.

For the molecule `O=C(N[C@H](Cc1nc2cc(F)ccc2[nH]1)C(=O)O)c1cc2ccccc2s1`, in series [1], affinity was put at a Ki of 76 nM. That is a double-digit nanomolar value.

`O=C(N[C@H](Cc1nc2cc(F)ccc2[nH]1)C(=O)O)c1ccc2ccccc2c1` had a Ki in series [1] of 80 nM. The Ki values of the last two molecules are within 1.5-fold of each other.

Regarding `O=C(CC1c2ccccc2-c2ccccc21)N[C@H](Cc1cc2ccc(F)cc2[nH]1)C(=O)O`, the Ki in series [1] is 12 nM. Further, the solubility in [8] is more than 100 µg/mL. Further, in [9], the lipophilicity (logP) was 3.6. The molecule further had a pKa in [10] of 3.9.

Consider `Cc1ccc2[nH]c(C[C@@H](NC(=O)c3cc4ccccc4s3)C(=O)O)nc2c1`, for which affinity in series [1] was put at a Ki of 424 nM.
